HELM strings list units from the 5' end as sugar, base in round brackets, then linkage (d deoxyribose, r ribose, m 2'-O-methyl, p phosphodiester). Strings are as the collection lists them; they lack the last nucleoside at the 3' end of the tested compound. [moe] = 2'-O-(2-methoxyethyl) (MOE); [sp] = phosphorothioate linkage; [m5C] = 5-methylcytosine
Target: GFAP
Test: mouse, dose not given
Conditions: ASO

Row | Substance | 3 h FOB score [score 0-7]
1 | RNA1{[moe](G)[sp].[moe](G)p.[moe](T)p.[moe](A)p.[moe](T)[sp].d(G)[sp].d(A)[sp].d(T)[sp].d(A)[sp].d(G)[sp].d(G)[sp].d([m5C])[sp].d(T)[sp].d([m5C])[sp].d(T)[sp].[moe](G)p.[moe](G)p.[moe]([m5C])[sp].[moe](T)}$$$$ (last 3' nucleoside missing) | 5
2 | RNA1{[moe](G)[sp].[moe](G)p.[moe](T)p.[moe](G)p.[moe](A)[sp].d(G)[sp].d(T)[sp].d(T)[sp].d(T)[sp].d([m5C])[sp].d(T)[sp].d(T)[sp].d(G)[sp].d(T)[sp].d(T)[sp].[moe](A)p.[moe](G)p.[moe](T)[sp].[moe](T)}$$$$ (last 3' nucleoside missing) | 7
3 | RNA1{[moe](G)[sp].[moe](G)p.[moe](T)p.[moe](G)p.[moe](G)[sp].d(G)[sp].d(T)[sp].d(G)[sp].d([m5C])[sp].d([m5C])[sp].d(G)[sp].d(T)[sp].d([m5C])[sp].d(T)[sp].d(G)[sp].[moe](G)p.[moe]([m5C])p.[moe](A)[sp].[moe](G)}$$$$ (last 3' nucleoside missing) | 7
4 | RNA1{[moe](G)[sp].[moe](G)p.[moe](T)p.[moe](G)p.[moe]([m5C])[sp].d(T)[sp].d(T)[sp].d(T)[sp].d(T)[sp].d(G)[sp].d([m5C])[sp].d([m5C])[sp].d([m5C])[sp].d([m5C])[sp].d([m5C])[sp].[moe](T)p.[moe]([m5C])p.[moe](G)[sp].[moe](A)}$$$$ (last 3' nucleoside missing) | 1
5 | RNA1{[moe](G)[sp].[moe](G)p.[moe](T)p.[moe](G)p.[moe]([m5C])p.d(T)[sp].d(T)[sp].d(T)[sp].d(T)[sp].d(G)[sp].d([m5C])[sp].d([m5C])[sp].d([m5C])[sp].d([m5C])[sp].d([m5C])[sp].[moe](T)p.[moe](G)p.[moe](T)[sp].[moe](A)}$$$$ (last 3' nucleoside missing) | 3
6 | RNA1{[moe](G)[sp].[moe](G)p.[moe](T)p.[moe](T)p.[moe](A)[sp].d(G)[sp].d([m5C])[sp].d([m5C])[sp].d(T)[sp].d(T)[sp].d(T)[sp].d([m5C])[sp].d(T)[sp].d(G)[sp].d(A)[sp].[moe](T)p.[moe](G)p.[moe]([m5C])[sp].[moe](T)}$$$$ (last 3' nucleoside missing) | 3
7 | RNA1{[moe](G)[sp].[moe](G)p.[moe](T)p.[moe](T)p.[moe](G)[sp].d(G)[sp].d(T)[sp].d(T)[sp].d(T)[sp].d([m5C])[sp].d(A)[sp].d(T)[sp].d([m5C])[sp].d([m5C])[sp].d(T)[sp].[moe](G)p.[moe](G)p.[moe](A)[sp].[moe](G)}$$$$ (last 3' nucleoside missing) | 3
8 | RNA1{[moe](G)[sp].[moe](G)p.[moe](T)p.[moe]([m5C])p.[moe]([m5C])[sp].d(T)[sp].d(A)[sp].d(A)[sp].d(A)[sp].d(T)[sp].d(A)[sp].d(T)[sp].d(T)[sp].d([m5C])[sp].d(T)[sp].[moe](A)p.[moe](G)p.[moe](T)[sp].[moe]([m5C])}$$$$ (last 3' nucleoside missing) | 1
9 | RNA1{[moe](G)[sp].[moe](G)p.[moe](T)p.[moe]([m5C])p.[moe]([m5C])p.d(T)[sp].d(A)[sp].d(A)[sp].d(A)[sp].d(T)[sp].d(A)[sp].d(T)[sp].d(T)[sp].d([m5C])[sp].d(T)[sp].[moe](A)p.[moe](G)p.[moe](T)[sp].[moe]([m5C])}$$$$ (last 3' nucleoside missing) | 1
10 | RNA1{[moe](G)[sp].[moe](G)p.[moe]([m5C])p.[moe](A)p.[moe](A)[sp].d([m5C])[sp].d(A)[sp].d(G)[sp].d(T)[sp].d(T)[sp].d(T)[sp].d([m5C])[sp].d([m5C])[sp].d(A)[sp].d(T)[sp].[moe](A)p.[moe](A)p.[moe]([m5C])[sp].[moe](A)}$$$$ (last 3' nucleoside missing) | 0
11 | RNA1{[moe](G)[sp].[moe](G)p.[moe]([m5C])p.[moe](A)p.[moe](G)[sp].d(T)[sp].d(A)[sp].d(T)[sp].d(T)[sp].d(A)[sp].d([m5C])[sp].d([m5C])[sp].d(T)[sp].[moe]([m5C])p.[moe](T)p.[moe](A)[sp].[moe]([m5C])}$$$$ (last 3' nucleoside missing) | 0
12 | RNA1{[moe](G)[sp].[moe](G)p.[moe]([m5C])p.[moe](A)p.[moe](G)[sp].d(T)[sp].d(A)[sp].d(T)[sp].d(T)[sp].d(A)[sp].d([m5C])[sp].d([m5C])[sp].d(T)[sp].d([m5C])[sp].d(T)[sp].[moe](A)p.[moe]([m5C])p.[moe](T)[sp].[moe](A)}$$$$ (last 3' nucleoside missing) | 3
13 | RNA1{[moe](G)[sp].[moe](G)p.[moe]([m5C])p.[moe](A)p.[moe](G)p.[moe](T)p.d(A)[sp].d(T)[sp].d(T)[sp].d(A)[sp].d([m5C])[sp].d([m5C])[sp].d(T)[sp].d([m5C])[sp].d(T)[sp].d(A)[sp].[moe]([m5C])p.[moe](T)[sp].[moe](A)}$$$$ (last 3' nucleoside missing) | 3
14 | RNA1{[moe](G)[sp].[moe](G)p.[moe]([m5C])p.[moe](A)p.[moe](G)p.d(T)[sp].d(A)[sp].d(T)[sp].d(T)[sp].d(A)[sp].d([m5C])[sp].d([m5C])[sp].d(T)[sp].d([m5C])[sp].d(T)[sp].[moe](A)p.[moe]([m5C])p.[moe](T)[sp].[moe](A)}$$$$ (last 3' nucleoside missing) | 3
15 | RNA1{[moe](G)[sp].[moe](G)p.[moe]([m5C])p.[moe](A)p.[moe]([m5C])[sp].d(A)[sp].d(G)[sp].d(T)[sp].d(T)[sp].d([m5C])[sp].d([m5C])[sp].d([m5C])[sp].d(A)[sp].d(G)[sp].d(A)[sp].[moe](T)p.[moe](A)p.[moe]([m5C])[sp].[moe](T)}$$$$ (last 3' nucleoside missing) | 5
16 | RNA1{[moe](G)[sp].[moe](G)p.[moe]([m5C])p.[moe](A)p.[moe]([m5C])p.[moe](A)p.d(G)[sp].d(T)[sp].d(T)[sp].d([m5C])[sp].d([m5C])[sp].d([m5C])[sp].d(A)[sp].d(G)[sp].d(A)[sp].d(T)[sp].[moe](A)p.[moe]([m5C])[sp].[moe](T)}$$$$ (last 3' nucleoside missing) | 1
17 | RNA1{[moe](G)[sp].[moe](G)p.[moe]([m5C])p.[moe](A)p.d(G)[sp].d(T)[sp].d(A)[sp].d(T)[sp].d(T)[sp].d(A)[sp].d([m5C])[sp].d([m5C])[sp].d(T)[sp].d([m5C])[sp].[moe](T)p.[moe](A)p.[moe]([m5C])p.[moe](T)[sp].[moe](A)}$$$$ (last 3' nucleoside missing) | 3
18 | RNA1{[moe](G)[sp].[moe](G)p.[moe]([m5C])p.[moe](A)p.d([m5C])[sp].d(A)[sp].d(G)[sp].d(T)[sp].d(T)[sp].d([m5C])[sp].d([m5C])[sp].d([m5C])[sp].d(A)[sp].d(G)[sp].[moe](A)p.[moe](T)p.[moe](A)p.[moe]([m5C])[sp].[moe](T)}$$$$ (last 3' nucleoside missing) | 1
19 | RNA1{[moe](G)[sp].[moe](G)p.[moe]([m5C])p.[moe](G)p.[moe](A)[sp].d(G)[sp].d([m5C])[sp].d(G)[sp].d(G)[sp].d(A)[sp].d(G)[sp].d(G)[sp].d([m5C])[sp].d([m5C])[sp].d(T)[sp].[moe](G)p.[moe](G)p.[moe](G)[sp].[moe](T)}$$$$ (last 3' nucleoside missing) | 7
20 | RNA1{[moe](G)[sp].[moe](G)p.[moe]([m5C])p.[moe](T)p.[moe](T)[sp].d(T)[sp].d(T)[sp].d(G)[sp].d(A)[sp].d(G)[sp].d(A)[sp].d(T)[sp].d(A)[sp].d(T)[sp].d([m5C])[sp].[moe](T)p.[moe](T)p.[moe](G)[sp].[moe](T)}$$$$ (last 3' nucleoside missing) | 5
21 | RNA1{[moe](G)[sp].[moe](G)p.[moe]([m5C])p.[moe](T)p.[moe](T)[sp].d([m5C])[sp].d(A)[sp].d(T)[sp].d([m5C])[sp].d(T)[sp].d(G)[sp].d([m5C])[sp].d(T)[sp].d(T)[sp].d([m5C])[sp].[moe]([m5C])p.[moe](T)p.[moe](G)[sp].[moe](G)}$$$$ (last 3' nucleoside missing) | 1
22 | RNA1{[moe](G)[sp].[moe](G)p.[moe]([m5C])p.[moe](T)p.[moe]([m5C])[sp].d(T)[sp].d([m5C])[sp].d(T)[sp].d([m5C])[sp].d(A)[sp].d(T)[sp].d([m5C])[sp].d(T)[sp].d(G)[sp].d(T)[sp].[moe]([m5C])p.[moe](A)p.[moe](A)[sp].[moe](A)}$$$$ (last 3' nucleoside missing) | 4
23 | RNA1{[moe](G)[sp].[moe](G)p.[moe]([m5C])p.[moe]([m5C])p.[moe](T)[sp].d(A)[sp].d([m5C])[sp].d(T)[sp].d(T)[sp].d([m5C])[sp].d(T)[sp].d([m5C])[sp].d(T)[sp].d(A)[sp].d(G)[sp].[moe](G)p.[moe](T)p.[moe](G)[sp].[moe](G)}$$$$ (last 3' nucleoside missing) | 1
24 | RNA1{[moe](G)[sp].[moe](T)p.[moe](A)p.[moe](G)p.[moe](T)[sp].d(T)[sp].d(T)[sp].d([m5C])[sp].d([m5C])[sp].d(T)[sp].d(T)[sp].d(T)[sp].d(T)[sp].d(A)[sp].d([m5C])[sp].[moe]([m5C])p.[moe](A)p.[moe](A)[sp].[moe](G)}$$$$ (last 3' nucleoside missing) | 1
25 | RNA1{[moe](G)[sp].[moe](T)p.[moe](A)p.[moe](T)p.[moe](T)[sp].d(A)[sp].d(G)[sp].d(G)[sp].d(A)[sp].d(T)[sp].d([m5C])[sp].d([m5C])[sp].d([m5C])[sp].[moe](A)p.[moe](T)p.[moe]([m5C])[sp].[moe](T)}$$$$ (last 3' nucleoside missing) | 2
26 | RNA1{[moe](G)[sp].[moe](T)p.[moe](A)p.[moe]([m5C])p.[moe]([m5C])[sp].d([m5C])[sp].d(T)[sp].d(G)[sp].d(G)[sp].d(T)[sp].d(A)[sp].d(T)[sp].d(G)[sp].d(A)[sp].d(T)[sp].[moe](A)p.[moe](G)p.[moe](G)[sp].[moe]([m5C])}$$$$ (last 3' nucleoside missing) | 6

Reference: the OligoGym collection
